In US9820990B2, “Methods of treating disorders associated with protein aggregation” (University of Pittsburgh—Of the Commonwealth System of …, priority 2009, dated 2017):
Structures can show the parent of a compound that is named as a salt. Where two headings read alike, the source gives them in different places.

Tests used:
sGFP::ATZ [1] = assay: LOPAC library high-content primary screen for sGFP::ATZ accumulation in transgenic animals; format: in vivo, C. elegans; settings: for Rank-score: 24 h
sGFP::ATZ [2] = assay: Hit compound characterization: dose-response in the sGFP::ATZ HCS assay; format: in vivo, C. elegans; parameters: key to dose-dependent response: c: Compound demonstrated a dose-dependent response.; Compound failed to demonstrate a dose-dependent response; settings: for dose-dependent response: retest at 0-100 μM, 24 or 48 hours; for effect on sGFP::ATZ accumulation: dose-response, 0-100 μM
Protocol: Imaging of animals using the ArrayScan VTI: Prior to imaging, worms were anesthetized by adding 30 μl of 0.02 M NaN3 in PBS to each well. Plates were resealed, inverted twice, and incubated for 5 minutes at room temperature. Images were acquired with the ArrayScan VTI HCS Reader fitted with a 2.5× objective and a 0.63× coupler using a 2-channel (TRITC and GFP) assay. Real-time analysis was performed using the SpotDetector BioApplication optimized to quantify fluorescent protein expression in C. elegans. Image acquisition and analysis of a 384-well plate was completed in <45 minutes. The total number of animals in the well was determined by counting the number of red heads (Pmyo-2mRFP) in the TRITC channel. Total spot area or total spot intensity was determined by quantifying the GFP-positive spots in the GFP channel. Total spot area or total spot intensity per animal was determined by dividing the values from the GFP channel by that from the TRITC channel.
Hit compound characterization: Compounds that were identified as potential hits were purchased (if available) and retested for verification. […] Compounds that produced a response in a dose-dependent manner were further tested for a time-dependent response. Compound dose-response curves were performed by dispensing 15 μl of a 4× stock solution into 384-well plates containing 15 μl of assay medium (see above). Thirty-five animals were sorted into each well bringing the volume to ˜60 μl. The final compound concentrations in each well varied from 0-100 μM. Assay plates were incubated in a 22° C. incubator for 24 or 48 hours. Each compound was tested in quadruplicate in at least 2 independent experiments.
Statistical evaluation: Statistical evaluation of data was performed using Prism® (Graphpad Software). The significance of actual and predicted data in FIGS. 12, 14 and 15 was determined using a linear regression analysis and comparing the slope and goodness-of-fit (r2) values. Statistical significance of the spot count, spot area and spot intensity values between N2 (wild-type) and various transgenic lines in FIG. 13 and dose-response in FIG. 17 was determined using an unpaired, one-tailed, Student's t-test.
Compound screen: To test the HCS protocol, a pilot drug screen was performed using the library of pharmacologically active compounds (LOPAC1280™ 1280 compounds). Tight gating parameters for total fluorescence were used to sort 35 young adult Pnhx2sGFP::ATZ animals into wells of 384-well plates containing […] of a LOPAC compound and 0.5% DMSO. Pnhx2sGFP::ATZ animals incubated with 0.5% DMSO served as untreated controls and were placed in the first-two and last-two columns of each plate. In a representative experiment, plate 1 of the LOPAC library was set-up for screening on day 1, and 3 other plates were set-up on the next day. After 24 incubation at 25° C., animals were immobilized by the addition of NaAz and placed in the ArrayScan VTI for automated imaging. To examine for systematic errors, the raw data (total spot area/animal) were depicted as a plate-well scatter plot (FIG. 17A). […] This difference reflects a wider sort-window used to collect animals on day 1 in comparison to that used on day 2. As the average values of the negative controls and that of the sample wells were similar, we combined the control and samples wells for normalization and to identify potential hits using the z-score (FIG. 17B). The ArrayScan VTI reads microtiter plates by rows, alternating from left-to-right, and then right-to-left. For some assays, we noted that the control fluorescence values would drift upwards slightly in rows towards the bottom of the plate. This drift appeared to correlate with an increase in chamber temperature during the scanning period and was minimized by cooling the chamber with a fan or shortening the read times by using 2.5× objective with a 0.6 coupler. Nonetheless, intra-plate variation was controlled for by presenting the data as a B-score (FIG. 17C). […]

[3] = among compounds that decreased ATZ accumulation, based on relative rank-scores
[4] = average of compound rankings by ascending B-score from two independent screens, 50 μM, <110 decreased, >1225 increased sGFP::ATZ inclusions
[5] = among compounds that increased ATZ accumulation, based on relative rank-scores

Row | Compound | Overall rank-order (sGFP::ATZ [1]; [3]) | Rank-score (sGFP::ATZ [1]; [4]) | further results
1 | CN1CCN(CCCN2c3ccccc3Sc3ccc(Cl)cc32)CC1 [prochlorperazine dimaleate] | 31 | 103.5 | 
2 | N#CC(C#N)=C(N)/C(C#N)=C/c1ccc(O)cc1 [tyrphostin AG 112] | 30 | 98.0 | 
3 | ivermectin | 1 | 2.0 | dose-dependent response (sGFP::ATZ [2]): ivermectin^d
4 | COc1cccc(C(=O)NCCN2CCN(c3ccc(Cl)cc3)CC2)c1 [N-(2-[4-(4-Chlorophenyl)piperazin-1-yl]ethyl)-3-methoxybenzamide] | 8 | 41.5 | 
5 | C/C=C(/C)C(=O)O[C@H]1C(C)=C2[C@H]([C@@H]1OC(=O)CCCCCCC)[C@@](C)(OC(C)=O)C[C@H](OC(=O)CCC)[C@@]1(O)[C@H]2OC(=O)[C@@]1(C)O [thapsigargin] |  | 1256.0 | Overall rank-order (sGFP::ATZ [1]; [5]): 2; dose-dependent response (sGFP::ATZ [2]): thapsigargin^c
6 | Cc1c(CC(C)(C)C(=O)O)n(Cc2ccc(Cl)cc2)c2ccc(F)cc12 [L-655,240] | 3 | 10.5 | 
7 | O=c1[nH]c2cc(Cl)ccc2c(O)c1-c1cccc(Oc2ccccc2)c1 [L-701,324] | 12 | 57.5 | 
8 | NC(=Nc1ccccc1)NC(=O)c1nc(Cl)c(N)nc1N [phenamil methanesulfonate] | 13 | 57.5 | dose-dependent response (sGFP::ATZ [2]): phenamil methanesulfonate^d
9 | CN(C)CCC=C1c2ccccc2COc2ccccc21 [doxepin hydrochloride] |  |  | Overall rank-order (sGFP::ATZ [1]): 15; Rank-score (sGFP::ATZ [1]; 50 µM): 61.0; dose-dependent response (sGFP::ATZ [2]): doxepin hydrochloride^d
10 | Cl.N[C@@H](CCl)C(=O)O [beta-chloro-L-alanine hydrochloride] | 16 | 61.5 | 
11 | CC(C)C[C@H]1C(=O)N2CCC[C@H]2[C@]2(O)O[C@](NC(=O)[C@@H]3C=C4c5cccc6[nH]c(Br)c(c56)C[C@H]4N(C)C3)(C(C)C)C(=O)N12.CS(=O)(=O)O [(+)-bromocriptine methanesulfonate] |  | 1240.5 | Overall rank-order (sGFP::ATZ [1]; [5]): 8
12 | C[C@](N)(Cc1ccc(O)c(O)c1)C(=O)O [L-alpha-methyl DOPA] | 18 | 72.5 | 
13 | Cl.Cl.OCCN1CCN(CC/C=C2/c3ccccc3Sc3ccc(C(F)(F)F)cc32)CC1 [cis-(Z)-flupenthixol dihydrochloride] | 20 | 74.0 | 
14 | O=S(=O)(c1cccc2cnccc12)N1CCNCC1 [HA-100] | 10 | 52.5 | 
15 | COc1[nH]c2ccc(F)cc2c1C(=O)OCC1CCN(CCNS(C)(=O)=O)CC1.NS(=O)(=O)O [GR 125487 sulfamate salt] | 4 | 24.0 | 
16 | CCN(CC)C(C)C(=O)N1c2ccccc2Sc2ccccc21.Cl (stereo not drawn) [10-(alpha-diethylaminopropionyl)-phenothiazine hydrochloride] | 21 | 75.5 | 
17 | L(−)-norepinephrine bitartrate | 7 | 36.5 | dose-dependent response (sGFP::ATZ [2]): L(−)-norepinephrine bitartrate^d
18 | Cc1cnc(C(=O)NCCc2ccc(S(=O)(=O)NC(=O)NC3CCCCC3)cc2)cn1 [glipizide] |  | 1234.0 | Overall rank-order (sGFP::ATZ [1]; [5]): 12; dose-dependent response (sGFP::ATZ [2]): glipizide^d
19 | C[N+]1(C)CCc2cc3c(cc2[C@H]1[C@@H]1OC(=O)c2c1ccc1c2OCO1)OCO3.[Br-] [(−)-bicuculline methbromide, 1(S), 9(R)] | 26 | 89.5 | 

Row | Compound | Overall rank-order (sGFP::ATZ [1]; [3]) | Rank-score (sGFP::ATZ [1]; [4]) | further results
20 | CC1=C(C(=O)O)N2C(=O)[C@@H](NC(=O)[C@H](N)C3=CCC=CC3)[C@H]2SC1 [cephradine] | 27 | 90.0 | 
21 | 5′-3′2,3-dicarboxy-2,3-dimethyl-1,4-epoxycyclohexane [cantharidic acid] | 22 | 79.0 | concentration at which an anti-protein aggregate effect was achieved (sGFP::ATZ [2]; C. elegans assay): 100 µM; degradation of aggregated ATZ protein (sGFP::ATZ [2]; Caenorhabditis elegans model system): able to promote degradation of aggregated ATZ protein; dose-dependent response (sGFP::ATZ [2]): cantharidic acid^c
22 | NCc1cc(=O)[nH]o1 [muscimol hydrobromide] | 5 | 28.0 | 
23 | CN(C)c1cc2c(Nc3ccc4c(cnn4Cc4ccccc4)c3)ncnc2cn1 [GW2974] |  | 1263.0 | Overall rank-order (sGFP::ATZ [1]; [5]): 1
24 | COc1ccc(C2CNC(=O)C2)cc1OC1CCCC1 (centres unmarked) [rolipram] | 14 | 58.0 | 
25 | CCN1CCc2nc(N)oc2CC1.Cl.Cl [B-HT 933 dihydrochloride] | 32 | 105.5 | dose-dependent response (sGFP::ATZ [2]): B-HT 933 dihydrochloride^d
26 | C#C[C@]1(O)CC[C@H]2[C@@H]3CCC4=Cc5nc6nc7ccccc7n6cc5C[C@]4(C)[C@H]3CC[C@@]21C [WIN 62,577] |  | 1233.5 | Overall rank-order (sGFP::ATZ [1]; [5]): 12
27 | CN[C@@H]1C[C@@H](c2ccc(Cl)c(Cl)c2)c2ccccc21 [indatraline hydrochloride] | 28 | 93.0 | 
28 | CCCCOC(=O)NS(=O)(=O)c1sc(CC(C)C)cc1-c1ccc(Cn2c(CC)nc3c(C)cc(C)nc32)cc1 [L-162,313] |  | 1238.0 | Overall rank-order (sGFP::ATZ [1]; [5]): 9
29 | CC(C)(C)c1cc(/C=C(\C#N)C(N)=S)cc(C(C)(C)C)c1O [tyrphostin AG 879] |  | 1236.5 | Overall rank-order (sGFP::ATZ [1]; [5]): 10; effect on sGFP::ATZ accumulation (sGFP::ATZ [2]): increased; effect on sGFP::ATZ accumulation (sGFP::ATZ [2]; listed as tyrphostatin): increase in sGFP::ATZ accumulation; dose-dependent response (sGFP::ATZ [2]): tyrphostin AG 879^c
30 | CS(=O)(=O)O.Cc1c(C(=O)c2cccc3ccccc23)c2cccc3c2n1[C@H](CN1CCOCC1)CO3 [(R)-(+)-WIN 55,212-2 mesylate] |  | 1231.0 | Overall rank-order (sGFP::ATZ [1]; [5]): 14
31 | Clc1ccccc1C(c1ccccc1)(c1ccccc1)n1ccnc1 [clotrimazole] |  |  | Overall rank-order (sGFP::ATZ [1]): 4; Rank-score (sGFP::ATZ [1]; 50 µM): 1255.0
32 | NCCc1c[nH]c2ccc(C(N)=O)cc12.O=C(O)/C=C\C(=O)O [5-carboxamidotryptamine maleate] | 29 | 95.5 | 
33 | COc1cc(OC)c(C=C2C(O)=Nc3ccccc32)c(OC)c1 [IC 261] |  | 1253.5 | Overall rank-order (sGFP::ATZ [1]; [5]): 5
34 | CCCN(CCC)[C@H]1CCc2c(F)ccc(O)c2C1.Cl [S(−)-UH-301 hydrochloride] | 17 | 65.0 | 
35 | Cn1ccc2cc3c(cc21)CCN3C(=O)Nc1cccnc1 [SB 206553 hydrochloride] | 11 | 56.0 | 
36 | O=C1Nc2ccccc2/C1=C1/Nc2ccccc2/C1=N\O [indirubin-3′-oxime] | 25 | 85.0 | 
37 | Cc1nc(-c2ccc(-c3ccc(C(=O)N4CCc5cc6c(cc54)C4(CCN(C)CC4)CO6)cc3)c(C)c2)no1 [SB 224289 hydrochloride] |  | 1255.0 | Overall rank-order (sGFP::ATZ [1]; [5]): 3
38 | CCCC(=O)NCCc1c2n(c3ccc(OC)cc13)Cc1ccccc1-2 [IIK7] |  | 1236.5 | Overall rank-order (sGFP::ATZ [1]; [5]): 11
